Consider 15 compounds from PubChem BioAssay (NCI).

Test systems include HCC-2998 colon; CCRF-CEM leukemia; DU-145 prostate; SF-268 CNS; SF-539 CNS; 786-0 renal; HCT-15 colon; UACC-257 melanoma.
What all share (assay): NCI anticancer screen, dose series, 48 h

“And” between values parts separate entries of the source, which are not always exact repeats. Equal entries are not always repeated.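 Five concentrations, 48 hours, 96-well plates. Here, GI50 denotes the concentration required for 50% inhibition of growth. Definition used: TGI = concentration required for complete inhibition of growth.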

With `CC(CN1c2ccccc2Sc2ccccc21)N(C)C` (stereo not given), the TGI is 37.5 µM in the assay with HCC-2998 colon; 40.1 µM with CCRF-CEM leukemia; 34.9 µM in the assay on DU-145 prostate; 33.5 µM in the assay with SF-268 CNS; 34 µM in the assay with SF-539 CNS; 27.9 µM with 786-0 renal. In addition, the TGI with HCT-15 colon was found to be 35.1 µM; in the assay on UACC-257 melanoma, 39.4 µM.

`Nc1nc2cc3nc(N)c(N)nc3cc2nc1N`: the TGI in the assay on HCC-2998 colon, in the assay on CCRF-CEM leukemia, in the assay on DU-145 prostate, in the assay with SF-268 CNS, with SF-539 CNS and in the assay on 786-0 renal was more than 100 µM each time. The TGI in the assay on HCT-15 colon and with UACC-257 melanoma was more than 100 µM throughout.

Turning to `NC(=O)N/N=C(\Cc1nc2ccc(Cl)cc2[nH]c1=O)C(=O)Nc1ccc(Cl)cc1Cl`, the TGI in the assay on HCC-2998 colon, with CCRF-CEM leukemia, with DU-145 prostate, in the assay with SF-268 CNS, in the assay with SF-539 CNS and in the assay with 786-0 renal was more than 100 µM in each case. The TGI in the assay on HCT-15 colon and in the assay with UACC-257 melanoma was more than 100 µM in each case.

For the compound `CC[C@]1(Cc2ccc(OC)c(OC)c2)CN(S(=O)(=O)c2ccc(C)cc2)C[C@@H]1OC(C)=O`, the TGI in the assay on HCC-2998 colon, in the assay on CCRF-CEM leukemia, in the assay on DU-145 prostate, in the assay on SF-268 CNS, with SF-539 CNS and with 786-0 renal was more than 100 µM throughout. Further, the TGI with HCT-15 colon and in the assay with UACC-257 melanoma was more than 100 µM throughout.

As for `CC(C)(C)c1ccc2c(c1)CNCCNCc1cc(C(C)(C)C)ccc1OCC1(CO2)COc2ccc(C(C)(C)C)cc2CNCCNCc2cc(C(C)(C)C)ccc2OC1`, the TGI in the assay on HCC-2998 colon stood at 0.786 µM; with CCRF-CEM leukemia it was 0.68 µM; with DU-145 prostate it was 3.15 µM; in the assay on SF-268 CNS it was 5.12 µM; with SF-539 CNS, 2.76 µM; in the assay on 786-0 renal it was 0.388 µM. Moreover, the TGI was determined as 2.17 µM in the assay with HCT-15 colon and 3 µM in the assay on UACC-257 melanoma.

Consider `O=C1/C(=C/c2ccccc2)N=C(c2ccccc2)N1n1c(-c2ccccc2)nc2ccccc2c1=O`, for which the TGI in the assay with HCC-2998 colon, in the assay with CCRF-CEM leukemia, with DU-145 prostate, with SF-268 CNS, with SF-539 CNS and in the assay with 786-0 renal was more than 100 µM each time. In addition, the TGI in the assay on HCT-15 colon and in the assay with UACC-257 melanoma was more than 100 µM each time.

In the case of `CC(C)(N=NC(C)(C)C(=O)NCCO)C(=O)NCCO`, the TGI with HCC-2998 colon, with CCRF-CEM leukemia, in the assay with DU-145 prostate, with SF-268 CNS, in the assay with SF-539 CNS and with 786-0 renal was more than 100 µM throughout. Further, the TGI in the assay with HCT-15 colon and with UACC-257 melanoma was more than 100 µM each time.

For `COCOC1/C=C/CCCCC2=C(C)C=C(C1)O2` (stereo not given), the TGI in the assay on HCC-2998 colon, in the assay with CCRF-CEM leukemia, in the assay with DU-145 prostate, with SF-268 CNS, in the assay on SF-539 CNS and in the assay with 786-0 renal was more than 100 µM throughout. For the same compound, the TGI with HCT-15 colon and in the assay on UACC-257 melanoma was more than 100 µM in each case.

Regarding `Cc1c(F)c(N)c2c(=O)cc(-c3ccc(NC(=O)CN(C)C)c(F)c3)oc2c1F`, the TGI with HCC-2998 colon is more than 100 µM; in the assay on CCRF-CEM leukemia, more than 76.6 µM; in the assay on DU-145 prostate, more than 100 µM; with SF-268 CNS, more than 100 µM; in the assay on SF-539 CNS it was more than 100 µM; in the assay with 786-0 renal it was more than 100 µM. For the same compound, the TGI in the assay with HCT-15 colon and in the assay with UACC-257 melanoma was more than 100 µM throughout.

As for `O=C(O)CN(CCNC(=O)OCC1c2ccccc2-c2ccccc21)CCNC(=O)OCC1c2ccccc2-c2ccccc21`, the TGI in the assay with HCC-2998 colon stood at 51.3 µM; with CCRF-CEM leukemia, 63 µM; with DU-145 prostate, 35.8 µM; in the assay on SF-268 CNS, 39.8 µM; with SF-539 CNS, 46.7 µM; in the assay on 786-0 renal, 36 µM. In addition, the TGI was found to be 70.3 µM with HCT-15 colon and 68.8 µM with UACC-257 melanoma.

Regarding `O=C(O)c1c2c(cc3c1CC1(Cc4ccccc4C1)C3)CCC2`, the TGI is more than 100 µM in the assay with HCC-2998 colon; 66.7 µM in the assay with CCRF-CEM leukemia; more than 100 µM in the assay with DU-145 prostate; more than 100 µM with SF-268 CNS; more than 100 µM in the assay with SF-539 CNS; more than 100 µM in the assay on 786-0 renal. Also, the TGI in the assay on HCT-15 colon and with UACC-257 melanoma was more than 100 µM in each case.

For the compound `CN1C(=O)N(c2ccccc2)C2(CCN(CC3COc4ccccc4O3)CC2)C1=O` (stereo not given), the TGI with HCC-2998 colon, in the assay on CCRF-CEM leukemia, in the assay on DU-145 prostate, in the assay on SF-268 CNS, with SF-539 CNS and with 786-0 renal was more than 100 µM in each case. Also, the TGI in the assay with HCT-15 colon and in the assay with UACC-257 melanoma was more than 100 µM in each case.

As to `COc1cc(-c2cc(=O)c3cc4c(cc3[nH]2)OCO4)cc(OC)c1O`, the TGI in the assay on HCC-2998 colon, with CCRF-CEM leukemia, in the assay with DU-145 prostate, in the assay with SF-268 CNS, in the assay with SF-539 CNS and in the assay on 786-0 renal was more than 10 µM in each case. In addition, the TGI in the assay on HCT-15 colon and in the assay on UACC-257 melanoma was more than 10 µM throughout.

Consider `CC(=O)OCC1OC(OC(C)(C)CC/C=C(\C)[C@@H]2C/C=C(\C)CC/C=C(\C)CC2)C(O)C(O)C1OC(C)=O` (stereo not given in full), for which the GI50 was 69.8 µM and 17.9 µM in the assay with HCC-2998 colon; > 76.3 µM and 17 µM in the assay on DU-145 prostate; 32.6 µM and 13.5 µM with SF-539 CNS; 49.4 µM and 14.2 µM in the assay on HCT-15 colon; 99.3 µM and 19.1 µM in the assay with UACC-257 melanoma. The TGI was > 100 µM and 35.9 µM with HCC-2998 colon; 20.8 µM and 67 µM with CCRF-CEM leukemia; > 100 µM and 32.1 µM in the assay with DU-145 prostate; 98.7 µM and 38.3 µM in the assay with SF-268 CNS; 82.9 µM and 33.9 µM in the assay on SF-539 CNS; 96.8 µM and 58.8 µM in the assay with 786-0 renal. The TGI in the assay on HCT-15 colon was > 100 µM and 29.2 µM; with UACC-257 melanoma, > 100 µM and 38.5 µM.

Regarding `CCCCCCCCCCCCCCCCCCNc1ccn(C2OC(COP(=O)(O)OCC3OC(n4ccc(NC(=O)CCCCCCCCCCCCCCCCC)nc4=O)C(OC(C)=O)C3OC(C)=O)C(OC(C)=O)C2OC(C)=O)c(=O)n1` (stereo not given), the TGI in the assay on HCC-2998 colon, in the assay on CCRF-CEM leukemia, with DU-145 prostate, in the assay with SF-268 CNS, with SF-539 CNS and in the assay with 786-0 renal was more than 100 µM each time. Further, the TGI in the assay on HCT-15 colon and in the assay with UACC-257 melanoma was more than 100 µM in each case.
